Assay results reported in US5733749A, “Glycerol phosphatase with stereo-specific activity” (priority 1995, dated 1998).
“Also recorded” adds a separate entry of the source. One block for each molecule: values may come before it.

How the values were obtained:
B. licheniformis D-GPase [1] = target: T1, B. licheniformis D-GPase (Bacillus licheniformis, UniProt Q65CZ1); assay: Effect of ADP and inorganic phosphate on D-GPase activity; format: biochemical
T1 construct: about 25 kDa by gel filtration
T1 sequence (Q65CZ1 1-216): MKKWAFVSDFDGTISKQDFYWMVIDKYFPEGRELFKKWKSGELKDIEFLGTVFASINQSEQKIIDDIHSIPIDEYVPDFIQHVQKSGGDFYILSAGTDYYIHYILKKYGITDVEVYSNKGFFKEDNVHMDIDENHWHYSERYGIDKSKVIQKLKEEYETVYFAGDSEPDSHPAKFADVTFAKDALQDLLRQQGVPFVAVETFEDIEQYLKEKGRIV
Protocol: GPase activity was measured by combining cell extract and the appropriate stereoisomer(s) (DL or L) of GP, incubating the mixture, terminating the reaction with acid, and determining the glycerol content by high-performance liquid chromatography (HPLC) analysis. Assay mixtures consisted of, in a total of 500 μl:25 mM MgCl2 ; 25-50 mM PIPES [piperazine-N,N'-bis(2-ethanesulfonic acid)], pH 7.1; 25-100 mM substrate; and the required volume of cell extract. Incubations were carried out at 37° C. for 30-150 min in microcentrifuge tubes, then 72 μl of 20% trichloroacetic acid (TCA) was added (2.5% final) to each tube to stop the reaction. The samples were spun in a microcentrifuge to remove any precipitate, and the supernatants were filtered through Supor-200 0.2 μm membrane filters (Gelman Sciences, Ann Arbor, Mich.) and analyzed for glycerol by HPLC. Assays for dephosphorylation of other compounds were also analyzed by HPLC (for the dephosphorylated compound) and carried out in the same way as the assays with GP as substrate. Assays for p-nitrophenyl phosphate (PNPP) hydrolysis were the same as with GP as substrate but were carried out with 1.5 mM PNPP in microtiter plates, and absorbance at 420 nm was used to measure the extent of hydrolysis of PNPP. Calf intestinal alkaline phosphatase was used as a standard to ensure that PNPP could be hydrolyzed under the conditions of the assay.
Assays that were analyzed for inorganic phosphate instead of glycerol were carried out using the procedure of Marsh, Biochim. […] Blanks were identical assays except without substrate.

B. licheniformis D-GPase [2] = target: T1, B. licheniformis D-GPase; format: biochemical; conditions: for Relative activity: chloride of the cation added at 25 mM
Protocol: (§1) GPase activity was measured by combining cell extract and the appropriate stereoisomer(s) (DL or L) of GP, incubating the mixture, terminating the reaction with acid, and determining the glycerol content by high-performance liquid chromatography (HPLC) analysis. Assay mixtures consisted of, in a total of 500 μl:25 mM MgCl2; 25-50 mM PIPES [piperazine-N,N'-bis(2-ethanesulfonic acid)], pH 7.1; 25-100 mM substrate; and the required volume of cell extract. Incubations were carried out at 37° C. for 30-150 min in microcentrifuge tubes, then 72 μl of 20% trichloroacetic acid (TCA) was added (2.5% final) to each tube to stop the reaction. The samples were spun in a microcentrifuge to remove any precipitate, and the supernatants were filtered through Supor-200 0.2 μm membrane filters (Gelman Sciences, Ann Arbor, Mich.) and analyzed for glycerol by HPLC. Assays for dephosphorylation of other compounds were also analyzed by HPLC (for the dephosphorylated compound) and carried out in the same way as the assays with GP as substrate. Assays for p-nitrophenyl phosphate (PNPP) hydrolysis were the same as with GP as substrate but were carried out with 1.5 mM PNPP in microtiter plates, and absorbance at 420 nm was used to measure the extent of hydrolysis of PNPP. Calf intestinal alkaline phosphatase was used as a standard to ensure that PNPP could be hydrolyzed under the conditions of the assay.
L-GPases reported in the literature require divalent magnesium. Therefore, the inventors tested the effects of addition of the chlorides of three divalent cations: magnesium, manganese, and calcium (25 mM each).

B. licheniformis D-GPase [3] = target: T1, B. licheniformis D-GPase; assay: GPase activity assay, substrate specificity (HPLC of glycerol or dephosphorylated compound); format: biochemical; conditions: PNPP at 1.5 mM read at 420 nm
Protocol: as §1
Glycerol in fermentation broths and assay mixtures was measured by HPLC. The mobile phase was 0.01N H2 SO4, run at a flow rate of 0.6 ml/min through an Aminex HPX-87H organic acids column (Bio-Rad, Hercules, Calif.), which was maintained at 65° C. Samples were injected by a model AS-100 autosampler, and chromatograms were printed by a model 3392A integrator; the detector was a model 1770 differential refractometer (all from Bio-Rad).
Upon the finding that a GPase was present in B. licheniformis extracts, the inventors sought to determine which GP isomers are dephosphorylated by the enzyme and whether some other common phosphorylated metabolites can also be accepted as substrates. Because the initial assays were conducted with DL-GP, which also contained a small amount of β-GP, the specificity of the enzyme was unclear. HPLC chromatograms of reactions were run with crude cell extract and either DL-GP, L-GP, or β-GP. […] The low activity with pure β-GP rules out the possibility that the activity seen in assays with DL-GP is due to the presence of β-GP as an impurity in the DL-GP preparation.

[S. cerevisiae] α-GPase = Gancedo et al. 1968; cited from earlier work
carbonic anhydrase = conditions: read-out: Km of carbonic anhydrase for carbon dioxide; cited from earlier work
β-galactosidase = conditions: read-out: Km of β-galactosidase for lactose; cited from earlier work
threonine deaminase = conditions: cited from earlier work

Molecule: Nc1ncnc2c1ncn2[C@@H]1O[C@H](COP(=O)(O)OP(=O)(O)O)[C@@H](O)[C@H]1O [ADP]
effect on specificity and level of D-GPase activity (B. licheniformis D-GPase [1]; 9 mM ADP added to the assays): neither the specificity nor the level of activity of D-GPase was affected

Molecule: [Ca+2] [Ca^2+]
inhibition of D-GPase activity by the cation (B. licheniformis D-GPase [2]; 25 mM chloride): does not inhibit D-GPase activity
Relative activity (B. licheniformis D-GPase [2]): 0.08

Molecule: O=C(O)[C@H](O)COP(=O)(O)O [D-3-phosphoglyceric acid]
accepted as substrate / hydrolysis by D-GPase (B. licheniformis D-GPase [3]): little or no hydrolysis; also recorded: does not accept

Molecule: O=P(O)(O)OC[C@@H](O)CO [D-GP, D-α-glycerophosphate]
efficiency of α-GPase on D-GP relative to that on L-GP ([S. cerevisiae] α-GPase): 1/30

accepted as substrate / hydrolysis by D-GPase (B. licheniformis D-GPase [3]): does not accept
Molecule: O=P(O)(O)OC[C@H](O)CO [L-α-glycerophosphate]

Molecule: [Mg+2] [Mg^2+]
Relative activity (B. licheniformis D-GPase [2]): 1.00

Molecule: [Mn+2] [Mn^2+]
Relative activity (B. licheniformis D-GPase [2]): 0.53

Molecule: O=C=O [carbon dioxide]
Km (carbonic anhydrase): ~8 mM

Molecule: O=C(CO)COP(=O)(O)O [dihydroxyacetone phosphate]
accepted as substrate / hydrolysis by D-GPase (B. licheniformis D-GPase [3]; phosphate): little or no hydrolysis; also recorded: does not accept

Molecule: O=P(O)(O)OC[C@H]1OC(O)[C@H](O)[C@@H](O)[C@@H]1O (some centres unmarked) [glucose-6-phosphate]
accepted as substrate / hydrolysis by D-GPase (B. licheniformis D-GPase [3]): little or no hydrolysis; also recorded: does not accept

D-GPase activity retained (B. licheniformis D-GPase [1]; in the presence of 25 mM inorganic phosphate, in vitro hydrolysis of D-GP): 75%
inhibition of D-GPase activity (B. licheniformis D-GPase [1]; inorganic phosphate present in assays of B. licheniformis extracts): did not acutely inhibit
Molecule: O=P(O)(O)O [inorganic phosphate]

Molecule: OC[C@H]1O[C@@H](O[C@H]2[C@H](O)[C@@H](O)C(O)O[C@@H]2CO)[C@H](O)[C@@H](O)[C@H]1O (some centres unmarked) [lactose]
Km (β-galactosidase): ~4 mM

Molecule: C[C@@H](O)[C@H](N)C(=O)O [threonine]
Km (threonine deaminase): ~5 mM

accepted as substrate / hydrolysis by D-GPase (B. licheniformis D-GPase [3]): does not accept
Molecule: O=P(O)(O)OC(CO)CO [β-glycerophosphate]

Molecule: D-glyceraldehyde phosphate
accepted as substrate / hydrolysis by D-GPase (B. licheniformis D-GPase [3]; phosphate): little or no hydrolysis; also recorded: does not accept
